2 compounds from publication PMC1851987, “Identification of the Endogenous Key Substrates of the Human Organic Cation Transporter OCT2 and Their Implication in Function of Dopaminergic Neurons” (PLoS ONE, 2007) can be followed below.

As usually defined, the Km is the concentration of substrate that gives half-maximal velocity.

The target in one series is T1, OCT2 variant K432Q (Homo sapiens, UniProt O15244, K432Q/S270A).
T1 sequence (O15244 1-555 S270A/K432Q): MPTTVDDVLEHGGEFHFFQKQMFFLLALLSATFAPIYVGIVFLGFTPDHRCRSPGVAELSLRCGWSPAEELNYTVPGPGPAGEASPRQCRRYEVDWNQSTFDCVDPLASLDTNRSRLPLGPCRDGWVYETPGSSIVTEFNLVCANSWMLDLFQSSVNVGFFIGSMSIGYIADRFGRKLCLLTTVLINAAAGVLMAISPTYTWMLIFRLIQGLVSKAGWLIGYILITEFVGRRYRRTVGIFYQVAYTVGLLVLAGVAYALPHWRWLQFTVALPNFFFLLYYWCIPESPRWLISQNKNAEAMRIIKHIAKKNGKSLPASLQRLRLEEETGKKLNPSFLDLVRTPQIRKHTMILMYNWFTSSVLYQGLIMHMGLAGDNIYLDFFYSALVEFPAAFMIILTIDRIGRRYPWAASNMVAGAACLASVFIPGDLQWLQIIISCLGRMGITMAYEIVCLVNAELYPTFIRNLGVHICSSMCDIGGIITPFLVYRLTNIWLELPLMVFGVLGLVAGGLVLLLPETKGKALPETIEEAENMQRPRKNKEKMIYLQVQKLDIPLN
The experiment in a line: Specific uptake into HEK-293 cells transfected with OCT2 variant K432Q. The protocol:
(§1) The cDNAs encoding the organic cation transporters OCT1 (GenBank accession no. NM_003057), OCT2 (NM_003058), and EMT (NM_021977) were amplified by RT-PCR from human liver, kidney, and placenta total RNA respectively, and subcloned into the eukaryotic expression vector pcDNA3. The cDNA encoding the norepinephrine transporter (SLC6A2) was kindly provided by C. Pifl (University of Vienna).
(§2) For uptake experiments, cells were grown on polystyrene dishes of 60 mm diameter to at least 80% confluence. […] Cells were lysed with 1 ml of 4 mmol/l perchloric acid and lysates subjected to LC-MS-MS quantification. Cellular protein content was determined after solubilization of perchloric acid precipitates with 1 ml of […] NaOH using the bicinchoninic assay (BCA Protein Assay Kit, Pierce).
(§3) Chromatographic separations were performed on Hypercarb (5 µm, 50×2.1 mm; Thermo Electron), Aquasil C18 (3 µm, 100×4.6 mm; Thermo Electron), or Hilic columns (5 µm, 100×3.0 mm; Waters Atlantis) by isocratic or gradient elution using 0.1% aqueous formic acid (A) and acetonitrile or methanol (B) as solvent system. For quantification, SRM transitions of a precursor ion [M+H]^+ into a specific fragment ion (peak area ratios relative to IS) were recorded in positive ESI mode at 1.0–1.5 mTorr collision pressure and 10–40 eV collision energy. […]

Series [1] deals with T2, organic cation transporter OCT2 (wild-type 400R) (Homo sapiens, UniProt O15244, S270A).
T2 sequence (O15244 1-555 S270A): T1 sequence (O15244 1-555 S270A/K432Q) with Q432K
The experiment in a line: Specific uptake into OCT2 (wild-type) transfected HEK-293 cells vs empty vector, LC-MS-MS. The following applies: for influx clearance Clin: specific uptake after incubation with 10 µmol/l, mean (s.e.m.), n = 3.

In another series the target is T3, OCT2 variant M165I (Homo sapiens, UniProt O15244, M165I/S270A).
T3 sequence (O15244 1-555 M165I/S270A): T1 sequence (O15244 1-555 S270A/K432Q) with M165I, Q432K
The experiment in a line: Specific uptake into HEK-293 cells transfected with OCT2 variant M165I. The protocol:
as §1, §2, §3

Where [2] appears, read: incubation with 10 µmol/l, mean (s.e.m.).

Molecules are shown by their SMILES. Numbering of substitutions follows the chain as printed.

As for `CC1NCCc2cc(O)c(O)cc21` (stereo not drawn) [salsolinol], the Km at 1 min was 129 µM on OCT2 variant K432Q (human, pH 7.4) and 127 µM on OCT2 variant M165I (human, pH 7.4). In addition, the “N-methylation of intracellular salsolinol (of salsolinol concentration)” value in series [1] (after 60 min of incubation, transfected HEK-293 cells) was ≤ 2.5%. In series [1], the “influx clearance Clin” value is listed as 18.5 (2.6) µl/mg/min.
For the compound `O=C1NC(Cc2c[nH]cn2)C(=O)N2CCCC12` (stereo not drawn) [cyclo(his-pro), histidyl-proline diketopiperazine], the Clin on OCT2 variant K432Q (setting [2]) is recorded as 26.0 (4.3) µl/mg/min; on OCT2 variant M165I (setting [2]), 24.8 (3.7) µl/mg/min. Besides, in series [1] (10 µmol/l, 3 min incubation), the “dependence of specific uptake on pH” value is “pH influenced specific uptake”. Further, the “dependence of specific uptake on extracellular sodium concentration” value in series [1] (10 µmol/l, 3 min incubation, sodium chloride isoosmotically replaced with lithium chloride) is listed as “independent of extracellular sodium concentration”. For the same compound, the “influx clearance Clin” value in series [1] was 25.0 (4.2) µl/mg/min.
